Converted amounts (≈) assume the structure as drawn.
Conditions: buffer; pH 7.4; 200.0 µM

Structure (SMILES) | solubility kinetic
O=C(Nc1cccnc1)c1ccccc1Cl | > 34.9 µg/mL
O=C(CN1C(=O)C2C3CCC(C3)C2C1=O)OCC(=O)c1ccc(Br)cc1 (stereo not given) | > 63 µg/mL
COCc1nc2oc3ccc(F)cc3c(=O)c2cc1C(=O)OC | 10.4 µg/mL (≈ 32.8 µM)
CC(=O)Nc1ccc(S(=O)(=O)NCC(=O)Nc2ccc3c(c2)OCO3)cc1 | > 58.7 µg/mL
O=C1NCCN1Cc1ccc(Cl)cc1 | 26.3 µg/mL (≈ 125 µM)
Cc1ccc(C(=O)N2C(=O)C(c3ccccc3)Oc3ccccc32)cc1 (stereo not given) | < 0.7 µg/mL
COc1cccc(C(=O)COc2ccc(NC(=O)c3ccccc3)cc2)c1 | < 0.8 µg/mL
Cc1cc(N2CCOCC2)nc(C(C)C)n1 | 32.4 µg/mL (≈ 146 µM)
Cc1nc(N2CCN(C)CC2)c2cc(-c3ccccc3)sc2n1 | 1.8 µg/mL (≈ 5.55 µM)
Cc1ccc(C(=O)NCc2ccco2)cc1 | > 32.3 µg/mL
CN(C)C(=O)Oc1noc2cc(Cl)ccc12 | 27.9 µg/mL (≈ 116 µM)
Cc1ccc2nc3cc([N+](=O)[O-])cc([N+](=O)[O-])c3cc2c1 | 0.8 µg/mL (≈ 2.82 µM)
COc1cccc(NC(=O)CSc2cccc[n+]2[O-])c1 | > 43.6 µg/mL
O=C(CCC(=O)N1CCN(S(=O)(=O)c2ccc([N+](=O)[O-])cc2)CC1)N1CCOCC1 | > 66.1 µg/mL
Cc1ccc2cc(N)ccc2n1 | > 23.7 µg/mL
CN=C(c1ccco1)n1c(=S)nc(-c2ccco2)n(C)c1=S | 39.6 µg/mL (≈ 119 µM)
CCc1ccc(OC)c(S(=O)(=O)NCc2cccs2)c1 | > 46.7 µg/mL
COC(=O)Nc1ccc(S(=O)(=O)NC2CCCCC2)cc1 | 3.2 µg/mL (≈ 10.2 µM)
COc1ccc(NC(=O)C2CCCN(C(=O)Nc3ccc(F)cc3)C2)cc1OC (stereo not given) | 13.2 µg/mL (≈ 32.9 µM)
CC(CC(=O)Nc1ccc2c(c1)OCO2)c1ccccc1 (stereo not given) | 38.5 µg/mL (≈ 136 µM)

Structure (SMILES) | solubility kinetic
O=C(Nc1ccc(Cl)cc1Cl)N1CCN(c2ncccn2)CC1 | > 52.8 µg/mL
C=Cc1cccc(NC(=O)c2ccc(NC(=O)c3ccco3)cc2)c1 | 3.1 µg/mL (≈ 9.33 µM)
O=C1CC2(CC(c3ccc(Cl)cc3)=NO2)C(=O)N1c1ccccc1 (stereo not given) | 48.9 µg/mL (≈ 144 µM)
COc1ccc(CNC(=O)COC(=O)[C@@H]2CCCN2C(=O)c2cccs2)cc1 | > 60.4 µg/mL
S=C(NCC1CCCO1)NC1CC1 (stereo not given) | > 30 µg/mL
COc1ccc(Br)cc1CN(C)C(=O)c1ccncc1 | > 50.3 µg/mL
Cc1cc(NC(=O)COC(=O)/C=C/c2ccc(C)o2)no1 | 1.8 µg/mL (≈ 6.2 µM)
Cc1cccc(C(=O)NC(C)c2ccc(-n3ccnc3)cc2)c1C (stereo not given) | 43 µg/mL (≈ 135 µM)
COc1ccc(NC(=O)c2cccc(NS(=O)(=O)c3ccccc3)c2)cc1 | 34.2 µg/mL (≈ 89.4 µM)
COCCCn1c(=O)c2sccc2n(Cc2ccccc2C)c1=O | > 51.7 µg/mL
COC(=O)CSc1nc(C)cc(C)n1 | > 31.8 µg/mL
CCCNC(=O)C(=O)NCC1CCCN1CC (stereo not given) | 36 µg/mL (≈ 149 µM)
NC(=O)c1ccsc1NC(=O)c1ccc([N+](=O)[O-])o1 | 20.5 µg/mL (≈ 72.9 µM)
COC(=O)[C@H](CC(C)C)NC(=O)Nc1ccc(F)cc1 | > 42.3 µg/mL
COc1ccc(CNC(=O)COC(=O)c2ccc(C)c(S(=O)(=O)N3CCOCC3)c2)cc1 | 7.8 µg/mL (≈ 16.9 µM)
Cc1cccc(Nc2nc(CC(=O)O)cs2)c1 | 24.6 µg/mL (≈ 99.1 µM)
COc1ccc(C(=O)OCC(=O)c2ccc3c(c2)NC(=O)CO3)cc1S(=O)(=O)N1CCOCC1 | 11.3 µg/mL (≈ 23 µM)
Fc1ccc(NC2=NCCCCC2)cc1 | > 30.9 µg/mL
COc1ccc(OCC(=O)C2CC2)c(C#N)c1 | 27.5 µg/mL (≈ 119 µM)
CC(=O)Nc1ccc(SCC(=O)c2cc(C)ccc2C)cc1 | 28 µg/mL (≈ 89.3 µM)

Structure (SMILES) | solubility kinetic
CN1c2ccc(Cl)cc2C(=O)NC1c1ccc([N+](=O)[O-])s1 (stereo not given) | 30.1 µg/mL (≈ 93 µM)
CSc1ncccc1C(=O)OCC(=O)c1cc(C)n(C)c1C | 3.9 µg/mL (≈ 12.2 µM)
Cc1nc2cc(NS(=O)(=O)c3cccc(F)c3)ccc2s1 | > 48.4 µg/mL
Cc1cccc(C)c1NC(=S)N(CCc1ccncc1)C(C)C | 45.6 µg/mL (≈ 139 µM)
FC(F)(F)c1cccc(-n2cc(-c3ccccc3)[nH]c2=S)c1 | < 0.3 µg/mL
Cc1onc(-c2ccccc2)c1C(=O)NCc1ccc(F)cc1 | 7 µg/mL (≈ 22.6 µM)
O=C1N/C(=N\c2ccccn2)SC1Cc1ccccc1Cl (stereo not given) | < 0.2 µg/mL
N#CCCN(C(=O)CN1CCN(S(=O)(=O)c2ccc(Cl)s2)CC1)c1ccc(F)cc1 | > 70.6 µg/mL
CC(C)C(=O)O/N=C1\CCS(=O)(=O)c2sccc21 | > 43.1 µg/mL
O.S=c1nc[nH]c2nc[nH]c12 | > 25.5 µg/mL
N#CCCN(Cc1ccccc1)C(=O)c1cccs1 | > 40.6 µg/mL
CC(C)(C)C(=O)Cn1c(NCCCl)nc2ccccc21.Cl | > 49.5 µg/mL
Cl.NCCCCNCCCN | 16.4 µg/mL
COc1ccc(N)cc1NC(=O)CN1CCCC1 | > 37.4 µg/mL
COC(=O)c1ccc2[nH]c3c(c2c1)CC(C)CC3 (stereo not given) | 0.9 µg/mL (≈ 3.7 µM)
O=C(Nc1ccc2oc(-c3ccncc3)nc2c1)c1ccc(F)cc1 | 0.9 µg/mL (≈ 2.7 µM)
O=C(Nc1cccc(S(=O)(=O)N2CCCCC2)c1)C1CCCC1 | 41.2 µg/mL (≈ 122 µM)
O=C(NCc1ccc(F)cc1)c1ccc[nH]1 | > 32.7 µg/mL
c1ccc(CNc2nc(-c3ccccc3)nc3ccccc23)cc1 | 1.2 µg/mL (≈ 3.85 µM)
COc1ccc(Cn2c(=O)oc3ccc(C)cc32)cc1 | 1.2 µg/mL (≈ 4.46 µM)
